The values below come from ChEMBL document CHEMBL3045230, “Synthesis and pharmacological evaluation of novel 4-isopropylthiazole-4-phenyl-1,2,4-triazole derivatives as potential antimicrobial and antitubercular agents” (Med Chem Res, 2013).

Converted amounts (≈) assume the structure as drawn.

Holding throughout (type): functional
The test system of one experiment is Klebsiella pneumoniae. In words: Antimicrobial activity against Klebsiella pneumoniae ATCC 10031 assessed as growth inhibition after 24 hr by broth dilution assay method. As to conditions: ATCC 10031, 24 h. Background: Broth dilution looks for growth in wells or tubes with falling amounts of substance.
The subject of a further experiment is Bacillus subtilis. In words: Antimicrobial activity against Bacillus subtilis ATCC 60511 assessed as growth inhibition after 24 hr by broth dilution assay method. Particulars: ATCC 60511, 24 h.
The test system of the next experiment is Enterococcus faecalis. In words: Antimicrobial activity against […] ATCC 14506 assessed as growth inhibition after 24 hr by broth dilution assay method. As to conditions: ATCC 14506, 24 h.
The test system of a further experiment is Staphylococcus aureus. Description: Antimicrobial activity against Staphylococcus aureus ATCC 11632 assessed as growth inhibition after 24 hr by broth dilution assay method. Particulars: ATCC 11632, 24 h.
Experiment [1] relates to Mycobacterium tuberculosis. In words: Antitubercular activity against Mycobacterium tuberculosis H37Rv assessed as growth inhibition after 21 days by broth dilution assay method. As to conditions: 504 h.
The next experiment concerns Aspergillus niger. In words: Antimicrobial activity against Aspergillus niger ATCC 6275 assessed as growth inhibition after 24 hr by broth dilution assay method. As to conditions: ATCC 6275, 24 h.
A further experiment relates to Candida tropicalis. In words: Antimicrobial activity against Candida tropicalis ATCC 1369 assessed as growth inhibition after 24 hr by broth dilution assay method. As to conditions: ATCC 1369, 24 h.
Another experiment deals with Saccharomyces cerevisiae. Description: Antimicrobial activity against Saccharomyces cerevisiae ATCC 9763 assessed as growth inhibition after 24 hr by broth dilution assay method. Particulars: ATCC 9763, 24 h.
For the next experiment, the system named is Pseudomonas aeruginosa. In words: Antimicrobial activity against Pseudomonas aeruginosa ATCC 10145 assessed as growth inhibition after 24 hr by broth dilution assay method. Particulars: ATCC 10145, 24 h.
Another experiment concerns Escherichia coli. Description: Antimicrobial activity against Escherichia coli ATCC 10536 assessed as growth inhibition after 24 hr by broth dilution assay method. As to conditions: ATCC 10536, 24 h.

By MIC is commonly meant the least concentration at which growth counts as inhibited. As for `CC(C)c1csc(-c2nnc(SCC(=O)N/N=C/c3cccc([N+](=O)[O-])c3)n2-c2ccccc2)n1`, the MIC in the experiment on Klebsiella pneumoniae was determined as 16 µg/mL (≈ 31.5 µM); in the experiment on Bacillus subtilis, 31.2 µg/mL (≈ 61.6 µM); in the experiment with Enterococcus faecalis, 31.2 µg/mL (≈ 61.6 µM); with Staphylococcus aureus, 125 µg/mL (≈ 246 µM); in experiment [1], 62.5 µg/mL (≈ 123 µM); in the experiment on Aspergillus niger, 125 µg/mL (≈ 246 µM). The MIC was 31.2 µg/mL (≈ 61.6 µM) in the experiment with Candida tropicalis, 62.5 µg/mL (≈ 123 µM) in the experiment with Saccharomyces cerevisiae, 62.5 µg/mL (≈ 123 µM) in the experiment with Pseudomonas aeruginosa and 31.2 µg/mL (≈ 61.6 µM) in the experiment with Escherichia coli.
Consider `COc1cc(/C=N/NC(=O)CSc2nnc(-c3nc(C(C)C)cs3)n2-c2ccccc2)ccc1O`, for which the MIC is 8 µg/mL (≈ 15.7 µM) with Klebsiella pneumoniae; 16 µg/mL (≈ 31.5 µM) in the experiment with Bacillus subtilis; 125 µg/mL (≈ 246 µM) with Enterococcus faecalis; 125 µg/mL (≈ 246 µM) in the experiment on Staphylococcus aureus; 31.2 µg/mL (≈ 61.4 µM) in [1]; 31.2 µg/mL (≈ 61.4 µM) in the experiment on Aspergillus niger. Further, the MIC with Candida tropicalis is 62.5 µg/mL (≈ 123 µM); with Saccharomyces cerevisiae it was 16 µg/mL (≈ 31.5 µM); in the experiment with Pseudomonas aeruginosa, 16 µg/mL (≈ 31.5 µM); in the experiment on Escherichia coli, 8 µg/mL (≈ 15.7 µM).
`CC(C)c1csc(-c2nnc(SCc3nnc(CCl)o3)n2-c2ccccc2)n1`: the MIC with Klebsiella pneumoniae was 31.2 µg/mL (≈ 72.2 µM); in the experiment with Bacillus subtilis it was 31.2 µg/mL (≈ 72.2 µM); with Enterococcus faecalis, 16 µg/mL (≈ 37 µM); in the experiment on Staphylococcus aureus it was 8 µg/mL (≈ 18.5 µM); in the experiment on Aspergillus niger it was 31.2 µg/mL (≈ 72.2 µM); in the experiment with Candida tropicalis, 125 µg/mL (≈ 289 µM). Also, the MIC in the experiment with Saccharomyces cerevisiae came to 62.5 µg/mL (≈ 144 µM); in the experiment on Pseudomonas aeruginosa, 16 µg/mL (≈ 37 µM); in the experiment with Escherichia coli it was 16 µg/mL (≈ 37 µM).
With `NNC(=O)c1ccncc1` [ISONIAZID], the MIC in experiment [1] is 0.25 µg/mL (≈ 1.82 µM).
As for `OC(Cn1cncn1)(Cn1cncn1)c1ccc(F)cc1F` [FLUCONAZOLE], the MIC in the experiment on Aspergillus niger, in the experiment on Candida tropicalis and in the experiment on Saccharomyces cerevisiae was no more than 1 µg/mL each time.
`CCn1cc(C(=O)O)c(=O)c2cc(F)c(N3CCNCC3)cc21` [NORFLOXACIN]: the MIC is no more than 1 µg/mL in the experiment on Klebsiella pneumoniae; no more than 1 µg/mL in the experiment with Bacillus subtilis; no more than 5 µg/mL in the experiment on Enterococcus faecalis; no more than 5 µg/mL in the experiment on Staphylococcus aureus; no more than 5 µg/mL in the experiment on Pseudomonas aeruginosa; no more than 1 µg/mL with Escherichia coli.
Consider `CC(C)c1csc(-c2nnc(SCc3nnc(-c4ccc(O)cc4)o3)n2-c2ccccc2)n1`, for which the MIC stood at 125 µg/mL (≈ 262 µM) in the experiment on Klebsiella pneumoniae; 31.2 µg/mL (≈ 65.6 µM) in the experiment on Bacillus subtilis; 62.5 µg/mL (≈ 131 µM) in the experiment on Enterococcus faecalis; 31.2 µg/mL (≈ 65.6 µM) with Staphylococcus aureus; 31.2 µg/mL (≈ 65.6 µM) in the experiment with Aspergillus niger; 31.2 µg/mL (≈ 65.6 µM) in the experiment on Candida tropicalis. For the same molecule, the MIC with Saccharomyces cerevisiae is 31.2 µg/mL (≈ 65.6 µM); with Pseudomonas aeruginosa, 31.2 µg/mL (≈ 65.6 µM); with Escherichia coli, 62.5 µg/mL (≈ 131 µM).
As for `Cc1ccc(-c2nnc(CSc3nnc(-c4nc(C(C)C)cs4)n3-c3ccccc3)o2)cc1`, the MIC in the experiment with Klebsiella pneumoniae was found to be 62.5 µg/mL (≈ 132 µM); in the experiment on Bacillus subtilis it was 125 µg/mL (≈ 263 µM); with Enterococcus faecalis, 31.2 µg/mL (≈ 65.8 µM); in the experiment with Staphylococcus aureus, 62.5 µg/mL (≈ 132 µM); in the experiment on Aspergillus niger, 125 µg/mL (≈ 263 µM); in the experiment on Candida tropicalis, 31.2 µg/mL (≈ 65.8 µM). Moreover, the minimum inhibitory concentration (MIC) was determined as 125 µg/mL (≈ 263 µM) in the experiment on Saccharomyces cerevisiae, 62.5 µg/mL (≈ 132 µM) in the experiment on Pseudomonas aeruginosa and 31.2 µg/mL (≈ 65.8 µM) in the experiment with Escherichia coli.
Regarding `CC(C)c1csc(-c2nnc(SCc3nnc(-c4ccc([N+](=O)[O-])cc4)o3)n2-c2ccccc2)n1`, the MIC was found to be 31.2 µg/mL (≈ 61.8 µM) in the experiment on Klebsiella pneumoniae; 62.5 µg/mL (≈ 124 µM) in the experiment on Bacillus subtilis; 31.2 µg/mL (≈ 61.8 µM) in the experiment with Enterococcus faecalis; 31.2 µg/mL (≈ 61.8 µM) with Staphylococcus aureus; 62.5 µg/mL (≈ 124 µM) in the experiment on Aspergillus niger; 31.2 µg/mL (≈ 61.8 µM) with Candida tropicalis. The MIC in the experiment on Saccharomyces cerevisiae was determined as 62.5 µg/mL (≈ 124 µM); with Pseudomonas aeruginosa, 31.2 µg/mL (≈ 61.8 µM); in the experiment on Escherichia coli, 62.5 µg/mL (≈ 124 µM).
As to `O=C(O)c1cn(C2CC2)c2cc(N3CCNCC3)c(F)cc2c1=O` [CIPROFLOXACIN], the MIC is no more than 1 µg/mL in the experiment with Klebsiella pneumoniae; no more than 1 µg/mL with Bacillus subtilis; no more than 5 µg/mL in the experiment with Enterococcus faecalis; no more than 5 µg/mL in the experiment on Staphylococcus aureus; no more than 5 µg/mL with Pseudomonas aeruginosa; no more than 1 µg/mL in the experiment on Escherichia coli.
As for `CC(C)c1csc(-c2nnc(SCc3nnc(-c4ccccc4)o3)n2-c2ccccc2)n1`, the MIC in the experiment with Klebsiella pneumoniae worked out at 62.5 µg/mL (≈ 136 µM); in the experiment on Bacillus subtilis, 31.2 µg/mL (≈ 67.8 µM); in the experiment on Enterococcus faecalis, 31.2 µg/mL (≈ 67.8 µM); in the experiment with Staphylococcus aureus, 31.2 µg/mL (≈ 67.8 µM); in the experiment on Aspergillus niger, 31.2 µg/mL (≈ 67.8 µM); in the experiment on Candida tropicalis it was 16 µg/mL (≈ 34.7 µM). For the same molecule, the MIC in the experiment with Saccharomyces cerevisiae was determined as 16 µg/mL (≈ 34.7 µM); in the experiment with Pseudomonas aeruginosa, 31.2 µg/mL (≈ 67.8 µM); in the experiment on Escherichia coli, 125 µg/mL (≈ 271 µM).
